Key:
RGCs = assay: Retrograde Fluoro-Gold labeling of RGCs and RGC densities after optic nerve crush; assay type: in vivo, Wistar rats; conditions: two weeks after ON crush
Protocol: (§1) Forty five adult male Wistar rats weighing 150-180 g (7-8 weeks old) were used and grouped (Table 1). All manipulations were performed with animals under general anesthesia induced by an intramuscular injection of a mixture of ketamine (40 mg/kg body weight (BW)) and xylazine (4 mg/kg BW). In addition, topical 0.5% Alcaine eye drops (Alcon, Puurs, Belgium) were used to perform topical anesthesia.
(§2) After general anesthesia and topical Alcaine eye drop application, the ON was exposed and isolated. Care was taken to avoid damaging the small vessels around the ON. A vascular clip (60 g micro-vascular clip) was then applied to the ON 2 mm posterior to the globe for 30 seconds. After the surgery, Tobradex eye ointment (Alcon, Puurs, Belgium) was administered. The rats were kept on electric heating pads at 37° C. for recovery. The control group received a sham operation that entailed ON exposure without the crush. 4-PSB-2 (5 mg/kg in 0.2 mL phosphate-buffered saline) or phosphate buffered saline (PBS control) was immediately administered after ON crush once by subcutaneous injection.
With this technique, only the RGCs with intact axons projected to the SC were labeled with FG. The procedure was performed based on Chang et al (Exp. Eye Res., 2004, 118, 109-116). Briefly, one week before sacrificing, the rats were anesthetized using a ketamine (100 mg/kg) and Xylazine (10 mg/kg) mixture, and then placed in a stereotactic apparatus. […] One week after labeling, the eyeballs were harvested after euthanasia of the animals. The eyeballs were placed in 10% formalin and iii the whole retina was then carefully dissected, flattened. The retina was examined with a 400× epi-fluorescence microscope equipped with a filter set (excitation filter=350-400 nm; barrier filter=515 nm), as well as a digital camera and software. The retinas were examined for RGCs at a distance of 1 or 3 mm from the optic nerve head in order to provide the central and mid-peripheral RGC densities respectively (FIG. 1A). RGCs were counted in eight areas randomly of […]/each in the central (about 40% of the central area) (FIG. 1B), and eight areas randomly of 38,250 mm^2/each in the mid-peripheral (about 30% of the mid-periphery) regions of each retina. The averages of these areas were taken as the mean density of RGCs per retina. RGC survival percentage was defined as the number of RGCs in each treatment group divided by the number of RGCs in the sham operated retina, multiplied by 100.

Wistar rats = assay: Flash visual-evoked potentials (FVEPs) after optic nerve crush; assay type: in vivo; conditions: 2 weeks after ON crush; 5 mg/kg s.c. once; n=6; sham 83±3 ms, PBS 154±23 ms
Protocol: as §1, §2
For the functional evaluation of the ON, FVEPs were recorded 2 weeks after ON crush in 18 experimental rats. […]

RGC layer = assay: TUNEL assay in retinal sections after optic nerve crush; assay type: in vivo, Wistar rats; conditions: RGC layer of retina; two weeks after ON crush; 5 mg/kg s.c. once; n=6; sham 2.0±1.7, PBS 14.8±6.5
Protocol: as §1
as §2, with “4-PSB-2 (5 mg/kg in 0.2 mL phosphate-buffered saline) or phosphate buffered saline (PBS control) was immediately administered after ON crush once by subcutaneous injection.” left out
To ensure the use of equivalent fields for comparison, all retinal frozen sections were prepared with retinas at 1-2 mm distance from the optic nerve head. […] The TUNEL positive cells in the RGC layer of each sample were counted in ten high powered fields (HPF, ×400 magnification), and three sections per eye were averaged.

[1] = test system: ED1 (CD68, a marker of macrophage/microglia); assay: Immunohistochemistry of ED1 in the ONs after optic nerve crush; assay type: in vivo, Wistar rats; conditions: lesion site of ON; two weeks after ON crush; 5 mg/kg s.c. once; n=6; sham 4.3±2.5, PBS 67.3±21.1
Protocol: as §1
(§3) After general anesthesia and topical Alcaine eye drop application, the ON was exposed and isolated. Care was taken to avoid damaging the small vessels around the ON. A vascular clip (60 g micro-vascular clip) was then applied to the ON 2 mm posterior to the globe for 30 seconds. After the surgery, Tobradex eye ointment (Alcon, Puurs, Belgium) was administered. The rats were kept on electric heating pads at 37° C. for recovery. […]
(§4) IHC of ED1 (CD68, a marker of macrophage/microglia) in the ONs and IHC of CD11b, iNOS and COX-2 in the retina using monoclonal antibodies (ED1, 1:50; CD11b, 1:20; AbD Serotec, Oxford, UK) or polyclonal antibodies (iNOS, 1:50; Cell signaling Inc. Beverly, Mass., USA; COX-2, 1:50; Santa Cruz, Calif., USA) were performed. […] For comparison, ED1 positive cells were counted in six HPF at the lesion site of ON (six rats in each group). Cd11b positive cells were counted in six HPF and three sections per eye were averaged.

Cd11b = assay: Immunohistochemistry of Cd11b in the retina after optic nerve crush; assay type: in vivo, Wistar rats; conditions: two weeks after ON crush, 5 mg/kg s.c. once, n=6, sham 2.3±1.7, PBS 40.0±9.7
Protocol: as §1, §3, §4

iNOS = assay: Immunoblotting and immunohistochemical analysis of iNOS expression in the retina after ON crush; assay type: in vivo, Wistar rats; conditions: two weeks after ON crush, 5 mg/kg s.c. once, ratio to GAPDH, n=3, result in words
Protocol: as §1, §3
as §4, with “averaged. […]” for “averaged.”

COX-2 = assay: Immunoblotting and immunohistochemical analysis of COX-2 expression in the retina after ON crush; assay type: in vivo, Wistar rats; conditions: two weeks after ON crush, 5 mg/kg s.c. once, ratio to GAPDH, n=3, result in words
Protocol: as §1, §3
as §4, with “averaged. […]” for “averaged.”

## CC(=O)CCSc1ccccc1 [4-PSB-2, 4-(phenylsulfanyl)butan-2-one]
RGCs; central retina, 5 mg/kg once by subcutaneous injection immediately after crush, n=6
  densities of RGCs in the central retina: 1342±473 /mm^2
RGCs; central retina, relative to sham operated retina, 5 mg/kg s.c. once
  RGC survival, central retina: 56.8 % survival
RGCs; central retina, vs PBS-treated group, p<0.05
  RGC survival rate increase as compared to the PBS-treated group, central retina: approximately 35.7%
RGCs; mid-peripheral retina, 5 mg/kg once by subcutaneous injection immediately after crush, n=6
  densities of RGCs in mid-peripheral retina: 915±244 /mm^2
RGCs; mid-peripheral retina, relative to sham operated retina, 5 mg/kg s.c. once
  RGC survival, mid-peripheral retina: 65.3 % survival
RGCs; mid-peripheral retina, vs PBS-treated group, p<0.05
  RGC survival rate increase as compared to the PBS-treated group, mid-peripheral retina: ~35.3%
Wistar rats
  latency of the P1 wave (FVEP): 118 ± 14 ms
RGC layer
  TUNEL positive cells in the RGC layer: 6.7±3.4 positive cells/HPG
[1]
  ED1 positive cells/HPF: 33.5±14.5 positive cells/HPF
Cd11b
  Cd11b positive cells/HPF: 17.3±5.9 positive cells/HPF
iNOS
  iNOS expression in the retina: prevented the increase
COX-2
  COX-2 expression in the retina: prevented the increase

Source: patent US9907763B2, “Method of treating or preventing the visual function loss by using 4-(phenylsulfanyl)butane-2-one (4-PSB-2)” (NATIONAL SUN YAT-SEN UNIVERSITY, priority 2016, dated 2018)
